Assay results: patent US9732051B2, “Isothiazoline compounds for combating invertebrate pests” (BASF SE, priority 2011, dated 2017)

Key:
Format in all cases: in vivo
[1] = tested on: Plutella xylostella; experiment: Diamond back moth leaf dip test; conditions: foliar, recorded 24, 72 and 120 hours after treatment, in comparison with untreated controls
Method: B.3 Diamond Back Moth (Plutella xylostella)
Leaves of Chinese cabbage were dipped in test solution and air-dried. Treated leaves were placed in petri dished lined with moist filter paper. Mortality was recorded 24, 72, and 120 hours after treatment.

[2] = tested on: Myzus persicae; experiment: Green peach aphid systemic test, artificial diet in 96-well plates; conditions: 72 h, 3 days, in comparison with untreated controls
Text: B.4 Green Peach Aphid (Myzus persicae)
For evaluating control of green peach aphid (Myzus persicae) through systemic means the test unit consisted of 96-well-microtiter plates containing liquid artificial diet under an artificial membrane.
The compounds were formulated using a solution containing 75% v/v water and 25% v/v DMSO. Different concentrations of formulated compounds were pipetted into the aphid diet, using a custom built pipetter, at two replications.
After application, 5-8 adult aphids were placed on the artificial membrane inside the microtiter plate wells. The aphids were then allowed to suck on the treated aphid diet and incubated at about 23±1° C. and about 50±5% relative humidity for 3 days. Aphid mortality and fecundity was then visually assessed.

[3] = tested on: Ceratitis capitata; experiment: Mediterranean fruitfly microtiter plate diet test, egg and larval mortality; conditions: 120 h, 5 days, in comparison with untreated controls
Method: B.5 Mediterranean Fruitfly (Ceratitis capitata)
For evaluating control of Mediterranean fruitfly (Ceratitis capitata) the test unit consisted of microtiter plates containing an insect diet and 50-80 C. capitata eggs.
(§1) The compounds were formulated using a solution containing 75% v/v water and 25% v/v DMSO. Different concentrations of formulated compounds were sprayed onto the insect diet at 5 μl, using a custom built micro atomizer, at two replications.
(§2) After application, microtiter plates were incubated at about 28±1° C. and about 80±5% relative humidity for 5 days. Egg and larval mortality was then visually assessed.

[4] = tested on: Dichromothrips corbetti; experiment: Orchid thrips floral-immersion test; conditions: 96 h, after 4 days, in comparison with untreated controls
Method: B.6 Orchid Thrips (Dichromothrips corbetti)
Dichromothrips corbetti adults used for bioassay were obtained from a colony maintained continuously under laboratory conditions. For testing purposes, the test compound was diluted to a concentration of 500 ppm (wt compound: vol diluent) in a 1:1 mixture of acetone:water (vol:vol), plus 0.01% vol/vol Kinetic® surfactant.
Thrips potency of each compound was evaluated by using a floral-immersion technique. Plastic petri dishes were used as test arenas. All petals of individual, intact orchid flowers were dipped into treatment solution and allowed to dry. Treated flowers were placed into individual petri dishes along with 10-15 adult thrips. The petri dishes were then covered with lids. All test arenas were held under continuous light and a temperature of about 28° C. for duration of the assay. After 4 days, the numbers of live thrips were counted on each flower, and along inner walls of each petri dish. The level of thrips mortality was extrapolated from pre-treatment thrips numbers.

[5] = tested on: Spodoptera eridania; experiment: Southern armyworm spray test on lima bean plants; conditions: 96 h, 4 days after treatment, in comparison with untreated controls
Method: B.9 Southern Armyworm (Spodoptera eridania)
(§3) The active compounds were formulated in cyclohexanone as a 10,000 ppm solution supplied in tubes. The tubes were inserted into an automated electrostatic sprayer equipped with an atomizing nozzle and they served as stock solutions for which lower dilutions were made in 50% acetone:50% water (v/v). A nonionic surfactant (Kinetic®) was included in the solution at a volume of 0.01% (v/v).
Lima bean plants (variety Sieva) were grown 2 plants to a pot and selected for treatment at the 1st true leaf stage. Test solutions were sprayed onto the foliage by an automated electrostatic plant sprayer equipped with an atomizing spray nozzle. The plants were dried in the sprayer fume hood and then removed from the sprayer. Each pot was placed into perforated plastic bags with a zip closure. About 10 to 11 armyworm larvae were placed into the bag and the bags zipped closed. Test plants were maintained in a growth room at about 25° C. and about 20-40% relative humidity for 4 days, avoiding direct exposure to fluorescent light (24 hour photoperiod) to prevent trapping of heat inside the bags. Mortality and reduced feeding were assessed 4 days after treatment, compared to untreated control plants.

[6] = tested on: Megoura viciae; experiment: Vetch aphid leaf disk test in 24-well plates; conditions: foliar, 120 h, 5 days, in comparison with untreated controls
Method: B.10 Vetch Aphid (Megoura viciae)
For evaluating control of vetch aphid (Megoura viciae) through contact or systemic means the test unit consisted of 24-well-microtiter plates containing broad bean leaf disks.
The compounds were formulated using a solution containing 75% v/v water and 25% v/v DMSO. Different concentrations of formulated compounds were sprayed onto the leaf disks at 2.5 μl, using a custom built micro atomizer, at two replications.
After application, the leaf disks were air-dried and 5-8 adult aphids placed on the leaf disks inside the microtiter plate wells. The aphids were then allowed to suck on the treated leaf disks and incubated at about 23±1° C. and about 50±5% relative humidity for 5 days. Aphid mortality and fecundity was then visually assessed.

[7] = tested on: Heliothis virescens; experiment: Tobacco budworm microtiter plate diet test, egg and larval mortality; conditions: 120 h, 5 days, in comparison with untreated controls
Method: B.11 Tobacco Budworm (Heliothis virescens) I
as §1, with “For evaluating control of tobacco budworm (Heliothis virescens) the test unit consisted of 96-well-microtiter plates containing an insect diet and 15-25 H. virescens eggs. The” for “The”, “at 10” for “at 5”
as §2

[8] = tested on: Anthonomus grandis; experiment: Boll weevil microtiter plate diet test, egg and larval mortality; conditions: 120 h, 5 days, in comparison with untreated controls
Method: B.12 Boll Weevil (Anthonomus grandis)
For evaluating control of boll weevil (Anthonomusgrandis) the test unit consisted of 24-well-microtiter plates containing an insect diet and 20-30 A. grandis eggs.
The compounds were formulated using a solution containing 75% v/v water and 25% v/v DMSO. Different concentrations of formulated compounds were sprayed onto the insect diet at 20 μl, using a custom built micro atomizer, at two replications.
After application, microtiter plates were incubated at about 23±1° C. and about 50±5% relative humidity for 5 days. Egg and larval mortality was then visually assessed.

[9] = tested on: Aphis craccivora; experiment: Cowpea aphid spray test on potted cowpea plants; conditions: assessed after 24, 72 and 120 hours, in comparison with untreated controls
Method: B.2 Cowpea Aphid (Aphis craccivora)
Potted cowpea plants colonized with approximately 100-150 aphids of various stages were sprayed after the pest population had been recorded. Population reduction was assessed after 24, 72, and 120 hours.

[10] = tested on: Nephotettix virescens; experiment: Rice green leafhopper spray test on rice seedlings; conditions: after 72 hours, in comparison with untreated controls
Method: B.7 Rice Green Leafhopper (Nephotettix virescens)
Rice seedlings were cleaned and washed 24 hours before spraying. The active compounds were formulated in 50:50 acetone:water (vol:vol), and 0.1% vol/vol surfactant (EL 620) was added. Potted rice seedlings were sprayed with 5 ml test solution, air dried, placed in cages and inoculated with 10 adults. Treated rice plants were kept at about 28-29° C. and relative humidity of about 50-60%. Percent mortality was recorded after 72 hours.

[11] = tested on: Leptinotarsa decemlineata; experiment: Colorado potato beetle spray test on eggplant foliage; conditions: foliar, 96 h, 4 days after treatment, in comparison with untreated controls
Method: B.13 Colorado Potato Beetle (Leptinotarsa decemlineata)
as §3
Eggplants were grown 2 plants to a pot and were selected for treatment at the 1st true leaf stage. Test solutions were sprayed onto the foliage by an automated electrostatic plant sprayer equipped with an atomizing spray nozzle. The plants were dried in the sprayer fume hood and then removed from the sprayer. The treated foliage was then cut and removed from the pot and placed in a 5-inch Petri dish lined with moistened filter paper. Five beetle larvae were introduced into each Petri dish and the dish was covered by a Petri dish lid. Petri dishes were maintained in a growth room at 25° C. and 20-40% relative humidity for 4 days, avoiding direct exposure to fluorescent light (24 hour photoperiod) to prevent trapping of heat inside the dishes. Mortality and reduced feeding were assessed 4 days after treatment, compared to untreated control plants.

[12] = tested on: Tetranychus kanzawai; experiment: Red spider mite spray test on cowpea beans; conditions: after 72 h, in comparison with untreated controls
Method: B.14 Red Spider Mite (Tetranychus kanzawai)
The active compound was dissolved at the desired concentration in a mixture of 1:1 (v/v) distilled water:acetone. A surfactant (Alkamuls® EL 620) was added at the rate of 0.1% (v/v).
Potted cowpea beans of 7-10 days of age were cleaned with tap water and sprayed with 5 ml of the test solution using air driven hand atomizer. The treated plants were allowed to air dry and afterwards inculated with 20 or more mites by clipping a cassava leaf section with known mite population. Treated plants were placed inside a holding room at about 25-27° C. and about 50-60% relatice humidity.
Mortality was determined by counting the live mites 72 HAT. Percent mortality was assessed after 72 h.

CCNC(=O)N/N=C/c1ccc(C2=NSC(c3cc(Cl)cc(Cl)c3)(C(F)(F)F)C2)cc1C (stereo not drawn) [Compound 1-5, 1-[(E)-[4-[5-(3,5-dichlorophenyl)-5-(trifluoromethyl)-4H-isothiazol-3-yl]-2-methyl-phenyl]methyleneamino]-3-ethyl-urea]
≥ 75%: mortality at 500 ppm [1] | mortality at 2500 ppm [2] | mortality at 2500 ppm [3] | mortality at 500 ppm [4] | mortality at 1 ppm [5] | mortality at 2500 ppm [6] | mortality at 2500 ppm [7] | mortality at 2500 ppm [8]

Cc1cc(C2=NSC(c3cc(Cl)cc(Cl)c3)(C(F)(F)F)C2)ccc1C(=O)NCC(=O)NCC(F)(F)F (stereo not drawn) [Compound 2-1, 4-[5-(3,5-Dichlorophenyl)-5-trifluoromethyl-4H-isothiazol-3-yl]-2-methyl-N-[2-oxo-2-(2,2,2-trifluoroethylamino)ethyl]benzamide]
≥ 75%: mortality at 500 ppm [9] | mortality at 500 ppm [1] | mortality at 2500 ppm [2] | mortality at 2500 ppm [3] | mortality at 500 ppm [4] | mortality at 500 ppm [10] | mortality at 1 ppm [5] | mortality at 2500 ppm [6] | mortality at 2500 ppm [7] | mortality at 2500 ppm [8] | mortality at 1 ppm [11] | mortality at 500 ppm [12]

CCSCC(=O)N(CC)Cc1ccc(C2=NSC(c3cc(Cl)cc(Cl)c3)(C(F)(F)F)C2)cc1C (stereo not drawn) [Compound 3-3, N-[[4-[5-(3,5-Dichlorophenyl)-5-(trifluoromethyl)-4H-isothiazol-3-yl]-2-methyl-phenyl]methyl]-N-ethyl-2-ethylsulfanyl-acetamide]
≥ 75%: mortality at 500 ppm [1] | mortality at 2500 ppm [2] | mortality at 2500 ppm [3] | mortality at 500 ppm [4] | mortality at 500 ppm [10] | mortality at 1 ppm [5] | mortality at 2500 ppm [7] | mortality at 2500 ppm [8]

Cc1cc(C2=NSC(c3cc(Cl)cc(Cl)c3)(C(F)(F)F)C2F)ccc1C(=O)NCC(=O)NCC(F)(F)F (stereo not drawn) [Compound 5-1, 4-[5-(3,5-dichlorophenyl)-4-fluoro-5-(trifluoromethyl)-4H-isothiazol-3-yl]-2-methyl-N-[2-oxo-2-(2,2,2-trifluoroethylamino)ethyl]benzamide]
≥ 75%: mortality at 500 ppm [1] | mortality at 2500 ppm [2] | mortality at 2500 ppm [3] | mortality at 500 ppm [4] | mortality at 2500 ppm [6] | mortality at 2500 ppm [7] | mortality at 2500 ppm [8] | mortality at 500 ppm [12]
